In patent publication US12215085B2 (priority 2019, dated 2025):

System: rats with common carotid artery occlusion-induced vascular dementia
Assay: Water maze test, common carotid artery occlusion-induced vascular dementia rats
Assay type: in vivo, rat
Details: succinate; for orientation angle for reaching the platform / speed for reaching the platform / swimming path length for reaching the platform / time for reaching the platform: x ± s; for Average speed / Number of crossing the platform / Orientation angle / Swimming path length in the platform area/total swimming path length × 100% / Time in the platform area / Time in the platform quadrants: Day 7
Source text: A rat blood vessel dementia model was made according to the references [ZHAO Xian-lin, FANG Xiu-bin, LI Dong-pei. Establishment of Vascular Dementia Model in Rats, J Chin Med Univ, 2002, 31 (3): 166-168; WANG Yong-yan, Zhang Bo-li, Editor-in-chief. Modern Chinese Medicine Clinic and Research on Vascular Dementia, People's Medical Publishing House, October 2003, First Version 214]: Chloral hydrate 0.4 g/kg was intraperitoneally injected for anesthetizing rats, and bilateral common carotid arteries were isolated and ligated. The animals were fed for 16 weeks, divided into groups on the last 7 days, and administered. The normal control group and the model group were administrated through the intragastric route with distilled water by 0.5 ml/100 g, the positive control group was administrated through the intragastric route with donepezil hydrochloride by 1.75 mg/kg (equivalent to 3.85 times the clinical daily dosage of 5 mg/70 kg), the low, medium and high-dose groups of Crystal Form A of octahydroaminoacridine succinate were administrated through the intragastric route with Crystal Form A of octahydroaminoacridine succinate by 0.7, 1.4 and 2.8 mg/kg (equivalent to 0.96, 1.92 and 3.85 times the clinical daily dosage of 8 mg/70 kg). The water maze test and the step-down test were carried out after continuous administration for 7 days, and the administration was continued during the test period. The water maze test was continuously performed for 7 days, in the first 6 days, in four different water entry points of quadrants 1, 2, 3 and 4, the time, the swimming path length, the orientation angle and the average speed of the rat reaching the platform were measured, meanwhile, the strategy for reaching the platform adopted by rats was observed, on the 7th day, the platform was removed, the number of rats crossing the platform in 2 minutes, the residence time in the platform area, the residence time in the platform quadrants, the percentage of the swimming path length in the platform area quadrants to the total swimming path length, the average speed and the orientation angle were measured. After the water maze test was finished, the step-down test was performed, and the number of electric shocks (or called as the error number) received by each rat within 5 minutes was recorded as the learning performance. The test was performed again after 24 hours, namely, the memory retention test, and the latent period for stepping-down the platform for the first time and the error number in five minutes were recorded. After the step-down test was finished, the brain was taken quickly for pathological examination, and the pathological changes of the hippocampus and the cortex were observed.

[1] = Day 1, 0.7 mg/kg intragastric, 0.7 mg/kg
[2] = Day 1, 1.4 mg/kg intragastric, 1.4 mg/kg
[3] = Day 1, 2.8 mg/kg intragastric, 2.8 mg/kg
[4] = Day 2, 0.7 mg/kg intragastric, 0.7 mg/kg
[5] = Day 2, 1.4 mg/kg intragastric, 1.4 mg/kg
[6] = Day 2, 2.8 mg/kg intragastric, 2.8 mg/kg
[7] = Day 3, 0.7 mg/kg intragastric, 0.7 mg/kg
[8] = Day 3, 1.4 mg/kg intragastric, 1.4 mg/kg
[9] = Day 3, 2.8 mg/kg intragastric, 2.8 mg/kg
[10] = Day 4, 0.7 mg/kg intragastric, 0.7 mg/kg
[11] = Day 4, 1.4 mg/kg intragastric, 1.4 mg/kg
[12] = Day 4, 2.8 mg/kg intragastric, 2.8 mg/kg
[13] = Day 5, 0.7 mg/kg intragastric, 0.7 mg/kg
[14] = Day 5, 1.4 mg/kg intragastric, 1.4 mg/kg
[15] = Day 5, 2.8 mg/kg intragastric, 2.8 mg/kg
[16] = Day 6, 0.7 mg/kg intragastric, 0.7 mg/kg
[17] = Day 6, 1.4 mg/kg intragastric, 1.4 mg/kg
[18] = Day 6, 2.8 mg/kg intragastric, 2.8 mg/kg
[19] = 0.7 mg/kg intragastric, 0.7 mg/kg
[20] = 1.4 mg/kg intragastric, 1.4 mg/kg
[21] = 2.8 mg/kg intragastric, 2.8 mg/kg

SMILES: Nc1c2c(nc3c1CCCC3)CCCC2.O=C(O)CCC(=O)O [Crystal Form K, 9-amino-1,2,3,4,5,6,7,8-octahydroacridine succinate]
- adopted strategy for reaching the platform (the peripheral type and the random type %) [1]: 93.00%
- orientation angle for reaching the platform [1]: 68.46 ± 25.21 °
- speed for reaching the platform [1]: 21.26 ± 4.78 cm/s
- swimming path length for reaching the platform [1]: 1602.41 ± 583.25 cm
- time for reaching the platform [1]: 75.36 ± 14.23 s
- adopted strategy for reaching the platform (the peripheral type and the random type %) [2]: 86.50%
- orientation angle for reaching the platform [2]: 69.28 ± 21.03 °
- speed for reaching the platform [2]: 20.45 ± 9.24 cm/s
- swimming path length for reaching the platform [2]: 1502.83 ± 613.11 cm
- time for reaching the platform [2]: 73.45 ± 14.49 s
- adopted strategy for reaching the platform (the peripheral type and the random type %) [3]: 79.00%
- orientation angle for reaching the platform [3]: 70.38 ± 18.48 °
- speed for reaching the platform [3]: 19.88 ± 6.76 cm/s
- swimming path length for reaching the platform [3]: 1211.27 ± 259.82 cm
- time for reaching the platform [3]: 70.25 ± 9.82 s
- adopted strategy for reaching the platform (the peripheral type and the random type %) [4]: 83.50%
- orientation angle for reaching the platform [4]: 60.47 ± 24.23 °
- speed for reaching the platform [4]: 21.66 ± 8.76 cm/s
- swimming path length for reaching the platform [4]: 1242.31 ± 438.47 cm
- time for reaching the platform [4]: 57.33 ± 17.88 s
- adopted strategy for reaching the platform (the peripheral type and the random type %) [5]: 80.00%
- orientation angle for reaching the platform [5]: 58.29 ± 17.83 °
- speed for reaching the platform [5]: 24.28 ± 9.65 cm/s
- swimming path length for reaching the platform [5]: 1219.38 ± 892.43 cm
- time for reaching the platform [5]: 50.21 ± 20.11 s
- adopted strategy for reaching the platform (the peripheral type and the random type %) [6]: 76.50%
- orientation angle for reaching the platform [6]: 57.88 ± 17.43 °
- speed for reaching the platform [6]: 28.24 ± 4.72 cm/s
- swimming path length for reaching the platform [6]: 1377.38 ± 328.92 cm
- time for reaching the platform [6]: 47.36 ± 14.52 s
- adopted strategy for reaching the platform (the peripheral type and the random type %) [7]: 70.50%
- orientation angle for reaching the platform [7]: 59.03 ± 16.89 °
- speed for reaching the platform [7]: 20.12 ± 8.22 cm/s
- swimming path length for reaching the platform [7]: 749.48 ± 427.45 cm
- time for reaching the platform [7]: 45.78 ± 10.33 s
- adopted strategy for reaching the platform (the peripheral type and the random type %) [8]: 71.00%
- orientation angle for reaching the platform [8]: 58.22 ± 10.34 °
- speed for reaching the platform [8]: 21.34 ± 6.99 cm/s
- swimming path length for reaching the platform [8]: 763.45 ± 414.55 cm
- time for reaching the platform [8]: 44.29 ± 20.13 s
- adopted strategy for reaching the platform (the peripheral type and the random type %) [9]: 65.50%
- orientation angle for reaching the platform [9]: 55.11 ± 16.99 °
- speed for reaching the platform [9]: 20.10 ± 6.82 cm/s
- swimming path length for reaching the platform [9]: 644.62 ± 582.37 cm
- time for reaching the platform [9]: 40.67 ± 13.41 s
- adopted strategy for reaching the platform (the peripheral type and the random type %) [10]: 75.50%
- orientation angle for reaching the platform [10]: 55.36 ± 19.61 °
- speed for reaching the platform [10]: 21.70 ± 10.21 cm/s
- swimming path length for reaching the platform [10]: 788.25 ± 300.86 cm
- time for reaching the platform [10]: 40.55 ± 16.73 s
- adopted strategy for reaching the platform (the peripheral type and the random type %) [11]: 68.00%
- orientation angle for reaching the platform [11]: 53.49 ± 14.67 °
- speed for reaching the platform [11]: 20.28 ± 6.02 cm/s
- swimming path length for reaching the platform [11]: 752.34 ± 467.22 cm
- time for reaching the platform [11]: 39.57 ± 18.69 s
- adopted strategy for reaching the platform (the peripheral type and the random type %) [12]: 62.50%
- orientation angle for reaching the platform [12]: 50.35 ± 15.5 °
- speed for reaching the platform [12]: 21.00 ± 5.91 cm/s
- swimming path length for reaching the platform [12]: 703.47 ± 231.68 cm
- time for reaching the platform [12]: 37.88 ± 17.67 s
- adopted strategy for reaching the platform (the peripheral type and the random type %) [13]: 72.50%
- orientation angle for reaching the platform [13]: 53.56 ± 14.56 °
- speed for reaching the platform [13]: 21.42 ± 7.22 cm/s
- swimming path length for reaching the platform [13]: 664.56 ± 562.88 cm
- time for reaching the platform [13]: 31.42 ± 17.35 s
- adopted strategy for reaching the platform (the peripheral type and the random type %) [14]: 62.00%
- orientation angle for reaching the platform [14]: 52.76 ± 19.40 °
- speed for reaching the platform [14]: 21.26 ± 8.46 cm/s
- swimming path length for reaching the platform [14]: 689.43 ± 267.98 cm
- time for reaching the platform [14]: 34.62 ± 12.48 s
- adopted strategy for reaching the platform (the peripheral type and the random type %) [15]: 58.50%
- orientation angle for reaching the platform [15]: 53.49 ± 23.42 °
- speed for reaching the platform [15]: 22.93 ± 6.31 cm/s
- swimming path length for reaching the platform [15]: 642.45 ± 386.45 cm
- time for reaching the platform [15]: 28.41 ± 8.73 s
- adopted strategy for reaching the platform (the peripheral type and the random type %) [16]: 70.00%
- orientation angle for reaching the platform [16]: 50.39 ± 22.30 °
- speed for reaching the platform [16]: 19.52 ± 14.27 cm/s
- swimming path length for reaching the platform [16]: 523.46 ± 237.12 cm
- time for reaching the platform [16]: 32.45 ± 21.25 s
- adopted strategy for reaching the platform (the peripheral type and the random type %) [17]: 66.50%
- orientation angle for reaching the platform [17]: 50.34 ± 20.04 °
- speed for reaching the platform [17]: 22.54 ± 9.36 cm/s
- swimming path length for reaching the platform [17]: 531.55 ± 169.37 cm
- time for reaching the platform [17]: 28.21 ± 15.63 s
- adopted strategy for reaching the platform (the peripheral type and the random type %) [18]: 54.00%
- orientation angle for reaching the platform [18]: 46.37 ± 26.8 °
- speed for reaching the platform [18]: 21.32 ± 7.46 cm/s
- swimming path length for reaching the platform [18]: 502.78 ± 482.65 cm
- time for reaching the platform [18]: 29.10 ± 17.83 s
- Average speed [19]: 23.62 ± 8.38 cm/s
- Number of crossing the platform [19]: 5.67 ± 3.45
- Orientation angle [19]: 27.88 ± 6.57 °
- Swimming path length in the platform area/total swimming path length × 100% [19]: 26.88 ± 7.36%
- Time in the platform area [19]: 2.87 ± 2.14 s
- Time in the platform quadrants [19]: 35.61 ± 10.91 s
- Average speed [20]: 24.69 ± 5.76 cm/s
- Number of crossing the platform [20]: 7.25 ± 2.45
- Orientation angle [20]: 24.69 ± 8.21 °
- Swimming path length in the platform area/total swimming path length × 100% [20]: 28.74 ± 8.90%
- Time in the platform area [20]: 2.18 ± 2.34 s
- Time in the platform quadrants [20]: 37.88 ± 12.37 s
- Average speed [21]: 25.45 ± 6.98 cm/s
- Number of crossing the platform [21]: 7.49 ± 3.51
- Orientation angle [21]: 23.57 ± 4.76 °
- Swimming path length in the platform area/total swimming path length × 100% [21]: 27.39 ± 10.42%
- Time in the platform area [21]: 2.56 ± 3.27 s
- Time in the platform quadrants [21]: 34.52 ± 15.82 s
